PMC8854719, “Phase 1A/1B dose-escalation and -expansion study to evaluate the safety, pharmacokinetics, food effects and antitumor activity of pamiparib in advanced solid tumours” (British Journal of Cancer, 2021)

Assay: Safety and tolerability: adverse events, dose-limiting toxicities, MTD, RP2D (Phase 1A/1B)
Format: in vivo
Protocol: This was an open-label, Phase 1, dose-escalation/dose-expansion study, conducted across six study centres in Australia. The dose-escalation phase evaluated twice-daily (BID) and once-daily (QD) dosing, and the dose-expansion phase evaluated the BID RP2D from the dose-escalation phase and food effects (Fig. 1). The food-effects cohort comprised two sequences: fast followed by fed (sequence 1) and fed followed by fast (sequence 2). […] The decision to proceed to the next dose cohort was determined by the Safety Monitoring Committee and followed a modified 3 + 3 escalation scheme. […] When ≥2 DLTs occurred in the first 23 days of a dose level, the next lower dose level was declared the MTD. Safety was monitored and DLTs were assessed in all dose cohorts. […] The food-effects cohort investigated the effects of food on the PK of pamiparib in patients with advanced solid tumours.
The QD dosing regimen was added as an amendment to the protocol with the purpose of exploring the feasibility of a more convenient regimen.
Safety and tolerability were assessed throughout the study by monitoring adverse events (AEs), serious AEs, clinical laboratory measurements and physical examinations. Adverse events were categorised according to their severity (National Cancer Institute Common Terminology Criteria for Adverse Events v4.03) and relationship to the study treatment.

[1] = 101 total patients, dose escalation and expansion
[2] = BID dose-escalation (2.5–120 mg), 45 patients
[3] = BID dose-escalation, 45 patients
[4] = Dose Escalation and Dose Expansion (N=101)
[5] = Total BID dose escalation (N = 45)
[6] = Total QD dose escalation (N=19)

## C[C@]12CCCN1CC1=NNC(=O)c3cc(F)cc4[nH]c2c1c34 [pamiparib]
101 patients
  Serious AE: nausea: 4.0%
  Serious AE: pleural effusion: 3.0%
  Serious AE: pneumonia: 3.0%
  Serious AE: small intestinal obstruction: 5.0%
101 patients (44 patients)
  Serious AEs: 43.6%
101 total patients
  Anaemia leading to dose reduction/interruption: 21.8%
  Haematologic AEs leading to dose reduction/interruption: 23.8%
  Neutropenia leading to dose reduction/interruption: 5.9%
  Thrombocytopenia leading to dose reduction/interruption: 4.0%
101 total patients (six patients)
  Adverse events leading to treatment discontinuation: 5.9%
[1]
  Anaemia, Grades ≥3: 24.8%
  Anaemia, all Grades: 35.6%
  Diarrhoea, Grades ≥3: 2.0%
  Diarrhoea, all Grades: 32.7%
  Fatigue, Grades ≥3: 3.0%
  Fatigue, all Grades: 48.5%
  Increased alanine aminotransferase, Grades ≥3: 5.0%
  Increased alanine aminotransferase, all Grades: 11.9%
  Nausea, Grades ≥3: 4.0%
  Nausea, all Grades: 69.3%
  Neutropenia, Grades ≥3: 5.9%
  Neutropenia, all Grades: 9.9%
  Vomiting, Grades ≥3: 1.0%
  Vomiting, all Grades: 31.7%
120-mg BID dosage cohort
  Treatment-related grade ≥3 AEs: 60.0%
160-mg QD dosage cohort
  Treatment-related grade ≥3 AEs: 63.6%
BID dosage cohort, dose escalation (N=45)
  Patients with a grade ≥3 AE: 62.2%
[2]
  Anaemia, AE: 33.3%
  Diarrhoea, AE: 28.9%
  Fatigue, AE: 33.3%
  Nausea, AE: 64.4%
  Vomiting, AE: 35.6%
[3]
  Treatment-related AEs leading to dose interruptions: 31.1%
  Treatment-related AEs leading to dose reductions: 6.7%
BID dosing
  Maximum tolerated dose (MTD): 80 mg
  Recommended Phase 2 dose (RP2D): 60 mg
[4]
  Abdominal pain, All Grades: 17 (16.8) n (%)
  Abdominal pain, Grade ≥3: 1 (1.0) n (%)
  Anemia, All Grades: 36 (35.6) n (%)
  Anemia, Grade ≥3: 25 (24.8) n (%)
  Constipation, All Grades: 21 (20.8) n (%)
  Constipation, Grade ≥3: 0 n (%)
  Decreased appetite, All Grades: 23 (22.8) n (%)
  Decreased appetite, Grade ≥3: 0 n (%)
  Diarrhea, All Grades: 33 (32.7) n (%)
  Diarrhea, Grade ≥3: 2 (2.0) n (%)
  Fatigue, All Grades: 49 (48.5) n (%)
  Fatigue, Grade ≥3: 3 (3.0) n (%)
  Headache, All Grades: 12 (11.9) n (%)
  Headache, Grade ≥3: 0 n (%)
  Increased alanine aminotransferase, All Grades: 12 (11.9) n (%)
  Increased alanine aminotransferase, Grade ≥3: 5 (5.0) n (%)
  Increased aspartate aminotransferase, All Grades: 10 (9.9) n (%)
  Increased aspartate aminotransferase, Grade ≥3: 3 (3.0) n (%)
  Nausea, All Grades: 70 (69.3) n (%)
  Nausea, Grade ≥3: 4 (4.0) n (%)
  Neutropenia, All Grades: 10 (9.9) n (%)
  Neutropenia, Grade ≥3: 6 (5.9) n (%)
  Upper respiratory tract infection, All Grades: 12 (11.9) n (%)
  Upper respiratory tract infection, Grade ≥3: 0 n (%)
  Urinary tract infection, All Grades: 14 (13.9) n (%)
  Urinary tract infection, Grade ≥3: 1 (1.0) n (%)
  Vomiting, All Grades: 32 (31.7) n (%)
  Vomiting, Grade ≥3: 1 (1.0) n (%)
QD dosage cohort, dose escalation (N=19)
  Patients with a grade ≥3 AE: 73.7%
QD dosage group (N=19)
  Treatment-related AEs leading to dose interruptions: 57.9%
  Treatment-related AEs leading to dose reductions: 5.3%
QD dosage group overall (N=19)
  Diarrhea, AE: 47.4%
  Fatigue, AE: 68.4%
  Nausea, AE: 73.7%
QD dosing
  Maximum tolerated dose (MTD): 160 mg
  Recommended Phase 2 dose (RP2D): 120 mg
[5]
  Abdominal pain, AE of any grade: 9 (20.0) n (%)
  Anaemia, AE of any grade: 15 (33.3) n (%)
  Ascites, AE of any grade: 5 (11.1) n (%)
  Back pain, AE of any grade: 4 (8.9) n (%)
  Constipation, AE of any grade: 8 (17.8) n (%)
  Cough, AE of any grade: 4 (8.9) n (%)
  Decreased appetite, AE of any grade: 5 (11.1) n (%)
  Diarrhoea, AE of any grade: 13 (28.9) n (%)
  Dose-limiting toxicity: 4 (8.9) n (%)
  Dyspnoea, AE of any grade: 3 (6.7) n (%)
  Fatigue, AE of any grade: 15 (33.3) n (%)
  Headache, AE of any grade: 4 (8.9) n (%)
  Hypoalbuminemia, AE of any grade: 3 (6.7) n (%)
  Hypomagnesemia, AE of any grade: 4 (8.9) n (%)
  Hypophosphatemia, AE of any grade: 3 (6.7) n (%)
  Increased AST, AE of any grade: 3 (6.7) n (%)
  Muscle spasms, AE of any grade: 4 (8.9) n (%)
  Nausea, AE of any grade: 29 (64.4) n (%)
  Neutropenia, AE of any grade: 6 (13.3) n (%)
  Non-cardiac chest pain, AE of any grade: 3 (6.7) n (%)
  Pain in extremity, AE of any grade: 3 (6.7) n (%)
  Peripheral sensory neuropathy, AE of any grade: 3 (6.7) n (%)
  Pleural effusion, AE of any grade: 4 (8.9) n (%)
  Pyrexia, AE of any grade: 4 (8.9) n (%)
  Treatment-emergent AE: 45 (100.0) n (%)
  Treatment-emergent AE: Grade 3 or higher: 28 (62.2) n (%)
  Treatment-emergent AE: Leading to death: 4 (8.9) n (%)
  Treatment-emergent AE: Leading to dose interruption: 27 (60.0) n (%)
  Treatment-emergent AE: Leading to dose modification: 27 (60.0) n (%)
  Treatment-emergent AE: Leading to dose reduction: 3 (6.7) n (%)
  Treatment-emergent AE: Leading to treatment discontinuation: 3 (6.7) n (%)
  Treatment-emergent AE: Serious: 25 (55.6) n (%)
  Treatment-related AE: 35 (77.8) n (%)
  Treatment-related AE: Grade 3 or higher: 10 (22.2) n (%)
  Treatment-related AE: Leading to death: 0 (0.0) n (%)
  Treatment-related AE: Leading to dose interruption: 14 (31.1) n (%)
  Treatment-related AE: Leading to dose modification: 14 (31.1) n (%)
  Treatment-related AE: Leading to dose reduction: 3 (6.7) n (%)
  Treatment-related AE: Leading to treatment discontinuation: 2 (4.4) n (%)
  Treatment-related AE: Serious: 3 (6.7) n (%)
  Upper respiratory tract infection, AE of any grade: 8 (17.8) n (%)
  Urinary tract infection, AE of any grade: 8 (17.8) n (%)
  Vomiting, AE of any grade: 16 (35.6) n (%)
[6]
  Dose-limiting toxicity: 1 (5.3) n (%)
  Treatment-emergent AE: 19 (100.0) n (%)
  Treatment-emergent AE: Grade 3 or higher: 14 (73.7) n (%)
  Treatment-emergent AE: Leading to death: 0 (0.0) n (%)
  Treatment-emergent AE: Leading to dose interruption: 13 (68.4) n (%)
  Treatment-emergent AE: Leading to dose modification: 13 (68.4) n (%)
  Treatment-emergent AE: Leading to dose reduction: 1 (5.3) n (%)
  Treatment-emergent AE: Leading to treatment discontinuation: 2 (10.5) n (%)
  Treatment-emergent AE: Serious: 6 (31.6) n (%)
  Treatment-related AE: 17 (89.5) n (%)
  Treatment-related AE: Grade 3 or higher: 10 (52.6) n (%)
  Treatment-related AE: Leading to death: 0 (0.0) n (%)
  Treatment-related AE: Leading to dose interruption: 11 (57.9) n (%)
  Treatment-related AE: Leading to dose modification: 11 (57.9) n (%)
  Treatment-related AE: Leading to dose reduction: 1 (5.3) n (%)
  Treatment-related AE: Leading to treatment discontinuation: 2 (10.5) n (%)
  Treatment-related AE: Serious: 1 (5.3) n (%)
